Measurements taken from PMC5378566, “Design, synthesis and evaluation in an LPS rodent model of neuroinflammation of a novel ^18F-labelled PET tracer targeting P2X7” (EJNMMI Research, 2017).
Values belong to the molecule of their own block, whether it stands above or below them.

Key:
rat P2X7 [1] = biological target: T1, rat P2X7 (Rattus norvegicus, UniProt Q64663); parameters: method as in PMID 11181928; details: YoPro dye uptake, P2X7-HEK293; cited from earlier work
T1 construct: expressed in transfected cells
T1 sequence (Q64663 1-595): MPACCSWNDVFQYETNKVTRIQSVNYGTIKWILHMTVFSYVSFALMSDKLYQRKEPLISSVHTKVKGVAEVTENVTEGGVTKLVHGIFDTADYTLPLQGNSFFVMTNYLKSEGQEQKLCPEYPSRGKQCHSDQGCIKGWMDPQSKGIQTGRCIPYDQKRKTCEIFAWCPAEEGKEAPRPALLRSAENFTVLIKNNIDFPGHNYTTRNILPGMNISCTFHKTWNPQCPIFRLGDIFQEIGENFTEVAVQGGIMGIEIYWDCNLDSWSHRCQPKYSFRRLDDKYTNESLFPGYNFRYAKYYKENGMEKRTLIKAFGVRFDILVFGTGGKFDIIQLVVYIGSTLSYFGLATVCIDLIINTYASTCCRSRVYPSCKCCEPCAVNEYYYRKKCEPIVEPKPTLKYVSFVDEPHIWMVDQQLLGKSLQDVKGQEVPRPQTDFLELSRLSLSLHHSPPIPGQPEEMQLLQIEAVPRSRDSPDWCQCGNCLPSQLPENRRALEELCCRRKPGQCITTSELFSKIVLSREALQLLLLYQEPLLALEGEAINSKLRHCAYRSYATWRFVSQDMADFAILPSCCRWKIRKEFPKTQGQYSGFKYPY

human P2X7 [2] = biological target: T2, human P2X7 (Homo sapiens, UniProt Q99572); parameters: method as in PMID 11181928; details: YoPro dye uptake, P2X7-HEK293; cited from earlier work
T2 construct: expressed in transfected cells
T2 sequence (Q99572 1-595): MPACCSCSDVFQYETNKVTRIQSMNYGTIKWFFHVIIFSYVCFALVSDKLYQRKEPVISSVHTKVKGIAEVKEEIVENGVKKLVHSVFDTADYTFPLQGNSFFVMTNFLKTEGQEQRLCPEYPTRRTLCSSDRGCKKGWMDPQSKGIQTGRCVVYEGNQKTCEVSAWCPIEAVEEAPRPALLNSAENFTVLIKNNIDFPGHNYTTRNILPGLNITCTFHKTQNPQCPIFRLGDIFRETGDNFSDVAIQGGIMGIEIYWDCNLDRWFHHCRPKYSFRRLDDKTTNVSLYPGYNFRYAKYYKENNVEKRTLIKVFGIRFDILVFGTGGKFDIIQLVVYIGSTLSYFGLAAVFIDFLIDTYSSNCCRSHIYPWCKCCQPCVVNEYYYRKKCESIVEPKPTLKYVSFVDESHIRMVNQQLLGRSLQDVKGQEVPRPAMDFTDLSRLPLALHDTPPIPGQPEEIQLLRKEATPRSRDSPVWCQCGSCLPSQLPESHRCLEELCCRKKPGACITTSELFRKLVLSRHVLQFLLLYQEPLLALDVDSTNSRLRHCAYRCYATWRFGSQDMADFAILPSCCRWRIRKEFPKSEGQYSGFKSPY

mouse P2X7 [3] = biological target: T3, mouse P2X7 (Mus musculus, UniProt Q9Z1M0); parameters: method as in PMID 11181928; details: YoPro dye uptake, P2X7-HEK293; cited from earlier work
T3 sequence (Q9Z1M0 1-595): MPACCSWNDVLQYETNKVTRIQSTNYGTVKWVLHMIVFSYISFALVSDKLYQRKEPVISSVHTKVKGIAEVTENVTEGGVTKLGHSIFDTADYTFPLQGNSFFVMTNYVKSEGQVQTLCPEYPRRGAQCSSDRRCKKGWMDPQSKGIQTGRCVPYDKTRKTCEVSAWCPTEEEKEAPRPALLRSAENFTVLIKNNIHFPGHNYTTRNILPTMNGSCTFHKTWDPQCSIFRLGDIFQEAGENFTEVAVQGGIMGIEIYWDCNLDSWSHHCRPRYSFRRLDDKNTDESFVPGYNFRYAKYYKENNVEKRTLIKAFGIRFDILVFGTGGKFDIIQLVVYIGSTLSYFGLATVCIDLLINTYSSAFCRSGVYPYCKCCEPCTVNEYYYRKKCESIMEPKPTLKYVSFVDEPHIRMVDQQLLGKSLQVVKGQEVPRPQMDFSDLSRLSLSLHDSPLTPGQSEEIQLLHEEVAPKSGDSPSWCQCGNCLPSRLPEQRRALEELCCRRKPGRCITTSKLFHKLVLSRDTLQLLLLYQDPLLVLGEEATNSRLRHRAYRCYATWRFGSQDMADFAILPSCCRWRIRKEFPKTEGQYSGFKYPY

human P2X7 [4] = biological target: T2, human P2X7; assay: Calcium influx (Fura-2/AM) inhibition assay, BzATP-activated; type: cell-based; details: Human isoform
mouse P2X7 [5] = biological target: T3, mouse P2X7; parameters: method as in PMID 19558545; details: Mouse isoform, literature value from similar assay format; cited from earlier work
mouse P2X7 [6] = biological target: T3, mouse P2X7; assay: Calcium influx (Fura-2/AM) inhibition assay, BzATP-activated, B16 cells; type: cell-based; details: Mouse isoform; for pKi: Cheng–Prusoff; for Ki: Cheng–Prusoff from pIC50 assuming competitive inhibition, BzATP 200 μM; for pIC50: P2X7-B16, [BzATP] 200 μM
rat P2X7 [7] = biological target: T1, rat P2X7; assay: Calcium influx (Fura-2/AM) inhibition assay, BzATP-activated; type: cell-based; details: Rat isoform
[8] = Stability test in 0.05% DMSO by radio/UV-HPLC; type: physicochemical; details: 37 °C, 2 h
Procedure: The reaction vessel was heated at 160 °C for 15 min, cooled to 50 °C and the solvent was concentrated at 50 °C under a stream of nitrogen for 7–10 min. Next, the crude mixture was diluted in 2 mL water ensuring <15% acetonitrile was present and injected in an HPLC semi-prep C18 column to provide isolation of the pure product in >99% RCP and >300 GBq/μmol molar radioactivity. The product was diluted to 30–50 mL in water and passed through a light C18 Short Sep-Pak SPE cartridge (WAT023501) for concentration in 200–500 μL ethanol. The resulting product was obtained in high purity and 4.0% overall RCY in 3 h and 30 min from start of synthesis. Purity tests were performed with HPLC method B (Table 1).
Supp. […] UV_A: UV chromatogram; ChA: Channel A (Radiochromatogram); Cps: counts per second.

Sprague–Dawley rats = assay: PET/CT imaging and biodistribution in LPS-treated and control rats; type: in vivo, rat
Procedure: Male Sprague–Dawley rats of 240–270 g were bought from Charles River Laboratories International, Inc., and used within 90 days. The animals were housed with a week of acclimatisation before procedures were done under pathogen-free conditions in a temperature- and humidity-controlled environment and given access to food and water ad libitum. All experiments were carried out in the Rayne Institute, St. Thomas’ Hospital, King’s College London, between 2015 and 2016 and according to the Animals Act 1986 and with the approval of the King’s College research ethics committee.
Twenty-four hours prior to scanning, all rats were pre-treated by an intraperitoneal injection of 0.5 mg/kg LPS from Escherichia coli (0111:B4 L2630, Sigma Aldrich) at 0.5 mg/mL or with 1 mL/kg sterile saline solution and weighed before the start of the PET imaging procedure. Then, the saline-dissolved reformulated radiotracer was injected under isoflurane anaesthesia in 0.2–5 MBq, corresponding to an administered dose of 0.5–16 ng/kg, and >300 GBq/μmol molar radioactivity via tail vein cannulation, followed by a 0.15 mL saline flush. Details on anaesthesia and PET/CT acquisition and analysis are reported in Additional file 1. Immediately after imaging, the animals were culled by terminal anaesthesia and cervical dislocation and dissected. Organs and body fluids were collected for gamma counting (LKB Wallac 1282) and biodistribution analysis.
Data are expressed as mean ± standard error mean (SEM) from three independent replicates, unless otherwise indicated. Statistical analysis of the %ID/g variation in the PET scans and biodistributions were performed with GraphPad Prism 5.0 (San Diego, USA) as a parametric two-way ANOVA test with Bonferroni post-test, while the mean longitudinal percentage injected dose per gram (%ID/g) and the post-LPS treatment weight variation were analysed with a Student’s t test. The asterisk indicates P < 0.01; **P < 0.005; ***P < 0.001. Where unspecified, no significance was found.
PET/CT scans were acquired with Nuclide^TM within the energy window of 400-600 keV, coincidence detection ratio 1-5 and voxel resolution of 0.30 x 0.30 x 0.30 mm^3. CT scanning was performed immediately before or after the PET scans with X-ray energy of 45 KVp, 360 projection and 0.25 x 0.25 x 0.21 mm^3 voxel size. The datasets were resolved by dynamic fine reconstructions with coincidence detection ratio 1-5 and decay correction to the time of injection. Binning was performed in incremental time units of 5 to 30 min size. All reconstructed datasets were analysed with VivoQuant 1.21 (InviCRO, LLC, Boston, USA). ROI activity quantification was corrected for background noise. Uptake was expressed as percent injected dose per gram of tissue (%ID/g), as calculated with reference to the injected activity dose at the time of injection and the ROI size in mm^3. The blood ROI was sampled from the coronary artery. All data are presented as mean ± SEM unless otherwise stated.
Immediately after imaging, the animals were culled by terminal anaesthesia and cervical dislocation. The animals were dissected and organs and body fluids were collected for gamma counting (LKB Wallac 1282) and weighed. An ^18F counts-to-becquerel standard curve was made so as to enable conversion between the two units. The radiotracer uptake in each organ was expressed as %ID/g, where %ID was the percent ratio of the measured organ radioactivity to the total administered dose. The latter was defined as the MBq injected to the animals, decay corrected to the start of counting.

Molecule: 2′(3′)-O-(4-Benzoylbenzoyl)adenosine 5′-triphosphate triethylammonium salt [BzATP]
pEC50 (rat P2X7 [1]): 6.3 ± 0.13 | pEC50 (human P2X7 [2]): 6.8 ± 0.14 | pEC50 (mouse P2X7 [3]): 4.7 ± 0.07

Ki (human P2X7 [4]; Cheng–Prusoff): 0.105 nM | IC50 (human P2X7 [4]; P2X7-HEK293, [BzATP] 100 μM): 66.1 nM | pKi (mouse P2X7 [6]): 7.01 | Ki (mouse P2X7 [6]): 97.2 nM | pIC50 (mouse P2X7 [6]): 5.97
Molecule: COc1ccc(CC(=O)NC(NC(=NC#N)Nc2cccc3ncccc23)C(C)(C)C)cc1OC (stereo not shown) [A-740003, N-(1-{[(Cyanoimino)(5-quinolinylamino)methyl]amino}-2,2-dimethylpropyl)-2-(3,4-dimethoxyphenyl)acetamide, reference compound]
Lit. pIC50 (mouse P2X7 [5]): 6.57 [34]

Ki (rat P2X7 [7]; Cheng–Prusoff from pIC50 assuming competitive inhibition, BzATP 100 μM): 36.1 nM | IC50 (rat P2X7 [7]; P2X7-HEK293, [BzATP] 100 μM): 7240 nM | pKi (mouse P2X7 [6]): 6.26 | Ki (mouse P2X7 [6]): 547 nM | pIC50 (mouse P2X7 [6]): 5.22
Molecule: N#CN=C(NCc1ccc(F)cc1)Nc1cccc2ncccc12 [EFB, 2-cyano-1-(4-fluorobenzyl)-3-(quinolin-5-yl)guanidine]

Stability [8]: no radioactive by-product formation | blood concentration of the tracer, LPS vs control (Sprague–Dawley rats; 90 min biodistribution): substantially unvaried | tracer uptake in upper digestive organs (stomach, pancreas), LPS vs control (Sprague–Dawley rats; 90 min biodistribution): increased, albeit non-significant | CNS uptake, spinal cord (Sprague–Dawley rats; PET, rats, i.v.): 0.05–0.1 %ID/g | CNS uptake, whole brain, cortex, olfactory bulb, cerebellum and basal ganglia (Sprague–Dawley rats; PET, rats, i.v.): 0.02–0.07 %ID/g | blood concentration (longitudinal uptake profile) (Sprague–Dawley rats; PET, rats, i.v., blood ROI): 0.05–0.1 %ID/g | brain uptake (visual PET image assessment) (Sprague–Dawley rats; control and 0.5 mg/kg LPS-pre-treated rats): low brain uptake | removal of the radioactivity (excretion route) (Sprague–Dawley rats; rats): predominantly via the urinary route
Molecule: N#C/N=C(/NCc1ccc([18F])cc1)Nc1cccc2ncccc12 [[^18F]EFB, 2-cyano-1-(4-[^18F]fluorobenzyl)-3-(quinolin-5-yl)guanidine]
